Experimental data published in PubChem BioAssay AID1195 (EPA DSSTox, 2008).

System: human maximum recommended daily dose, FDA database
Experiment: DSSTox (FDAMDD) FDA Maximum (Recommended) Daily Dose Database
Details: active compounds read low
Method in brief: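 MRDD values come from clinical trials with daily oral dosing, usually for 3–12 months, for the average adult, in mg/day converted to mg/kg-bw/day assuming 60 kg. Antineoplastic mg/m2 doses are divided by 37. Activity score maps log10(1/MRDD mmol) onto 1–100.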

[1] = TherapeuticCategory: narcotic analgesic
[2] = TherapeuticCategory: antibacterial
[3] = TherapeuticCategory: analgesic, anti inflammatory

Q: Which maximum recommended daily dose (mmol/kg-bw/day) (TherapeuticCategory: anabolic) does the source give for `C[C@]12CC[C@H]3[C@@H](CC=C4C[C@@H](O)CC[C@@]43C)[C@@H]1CC[C@@H]2O` here?
A: 0.00861

Q: Which maximum recommended daily dose (mmol/kg-bw/day) (TherapeuticCategory: short acting anesthetic) does the source give for `CCCC(C)C1(CC)C(=O)NC(=S)NC1=O` (configuration not stated) here?
A: 0.0172

Q: With `COC12CC[C@@]3(C[C@@H]1[C@](C)(O)C(C)(C)C)[C@H]1Cc4ccc(O)c5c4[C@@]3(CCN1CC1CC1)[C@H]2O5` as the compound, how does the maximum recommended daily dose (mmol/kg-bw/day) [1] read?
A: 0.00114

Q: For `NC[C@H]1O[C@H](O[C@H]2[C@H](O)[C@@H](O)[C@H](N)C[C@@H]2N)[C@H](N)[C@@H](O)[C@@H]1O`, which maximum recommended daily dose (mmol/kg-bw/day) [2] is on record?
A: 0.31

Q: Which maximum recommended daily dose (mmol/kg-bw/day) [3] does the source give for `CS(=O)(=O)c1ccc(C2=C(c3ccccc3)C(=O)OC2)cc1` here?
A: 0.00265

Q: `CCC[C@H](N[C@@H](C)C(=O)N1[C@H](C(=O)O)C[C@@H]2CCCC[C@@H]21)C(=O)OCC` was tested. Which maximum recommended daily dose (mmol/kg-bw/day) (TherapeuticCategory: antihypertensive, ACE inhibitor) did it give?
A: 0.000361

Q: `Cc1cc2c(OCC(CNC(C)(C)C)OC(=O)c3ccccc3)cccc2[nH]1` (configuration not stated) was tested. Which maximum recommended daily dose (mmol/kg-bw/day) (TherapeuticCategory: antihypertensive) did it give?
A: 4.39e-05

Q: With `CSc1ccc2c(c1)N(CCC1CCCCN1C)c1ccccc1S2` (configuration not stated) as the compound, how does the maximum recommended daily dose (mmol/kg-bw/day) (TherapeuticCategory: antipsychotic) read?
A: 0.0359

Q: Which maximum recommended daily dose (mmol/kg-bw/day) [2] does the source give for `O=C(O)c1cn(C2CC2)c2cc(N3CCNCC3)c(F)cc2c1=O` here?
A: 0.0401

Q: Which maximum recommended daily dose (mmol/kg-bw/day) (TherapeuticCategory: peristaltic stimulant) does the source give for `COc1cc(N)c(Cl)cc1C(=O)NC1CCN(CCCOc2ccc(F)cc2)CC1OC` (configuration not stated) here?
A: 0.00285

Q: With `C[N+](C)(C)CC(=O)[O-]` as the compound, how does the maximum recommended daily dose (mmol/kg-bw/day) (TherapeuticCategory: hepatoprotectant) read?
A: 0.0711

Q: `COc1ccc(C2C(=O)c3ccccc3C2=O)cc1` was tested. Which maximum recommended daily dose (mmol/kg-bw/day) (TherapeuticCategory: anticoagulant) did it give?
A: 0.0198

Q: `O=C(O)c1cc(-c2ccc(F)cc2F)ccc1O` was tested. Which maximum recommended daily dose (mmol/kg-bw/day) [3] did it give?
A: 0.0999

Q: How did the maximum recommended daily dose (mmol/kg-bw/day) (TherapeuticCategory: expectorant) turn out when `COc1ccccc1O` was run?
A: 0.0902

Q: How did the maximum recommended daily dose (mmol/kg-bw/day) (TherapeuticCategory: anesthetic) turn out when `C=CCC1(C(C)C#CCC)C(=O)NC(=O)N(C)C1=O` (configuration not stated) was run?
A: 0.00762

Q: How did the maximum recommended daily dose (mmol/kg-bw/day) (TherapeuticCategory: antihyperlipoproteinemic) turn out when `C[N+](C)(C)CC(O)CC(=O)[O-]` (configuration not stated) was run?
A: 0.104

Q: `COc1ccc(/C=C/C(=O)Nc2ccccc2C(=O)O)cc1OC` was tested. Which maximum recommended daily dose (mmol/kg-bw/day) (TherapeuticCategory: antiallergic) did it give?
A: 0.0153

Q: How did the maximum recommended daily dose (mmol/kg-bw/day) (TherapeuticCategory: antiarrhythmic) turn out when `COC(=O)CCc1ccc(OCC(O)CNC(C)C)cc1` (configuration not stated) was run?
A: 0.000677

Q: For `CN1C(=O)CN=C(c2ccccc2)c2cc([N+](=O)[O-])ccc21`, which maximum recommended daily dose (mmol/kg-bw/day) (TherapeuticCategory: anticonvulsant, skeletal muscle relaxant) is on record?
A: 0.000282

Q: How did the maximum recommended daily dose (mmol/kg-bw/day) [2] turn out when `CO/N=C(\C(=O)N[C@@H]1C(=O)N2C(C(=O)O)=C(CSc3nc(C)c(CC(=O)O)s3)CS[C@H]12)c1csc(N)n1` was run?
A: 0.057

Q: Which maximum recommended daily dose (mmol/kg-bw/day) (TherapeuticCategory: anthelmintic) does the source give for `CCN(CC)C(=O)N1CCN(C)CC1` here?
A: 0.0301

Q: With `CN1[C@@H]2CC[C@H]1CC(OC(=O)C(O)c1ccccc1)C2` (some centres not stated) as the compound, how does the maximum recommended daily dose (mmol/kg-bw/day) (TherapeuticCategory: anticholinergic) read?
A: 0.0018

Q: How did the maximum recommended daily dose (mmol/kg-bw/day) (TherapeuticCategory: antidiabetic) turn out when `CCOc1cc(CC(=O)N[C@@H](CC(C)C)c2ccccc2N2CCCCC2)ccc1C(=O)O` was run?
A: 0.00059

Q: How did the maximum recommended daily dose (mmol/kg-bw/day) (TherapeuticCategory: antiprotozoal, antiamebic) turn out when `CCS(=O)(=O)CCn1c([N+](=O)[O-])cnc1C` was run?
A: 0.135

Q: `COc1cccc(OC)c1C(=O)N[C@@H]1C(=O)N2[C@@H]1SC(C)(C)[C@@H]2C(=O)O` was tested. Which maximum recommended daily dose (mmol/kg-bw/day) [2] did it give?
A: 0.526

Q: `COc1cc(N)c(Cl)cc1C(=O)NC1CCN(Cc2ccccc2)CC1` was tested. Which maximum recommended daily dose (mmol/kg-bw/day) (TherapeuticCategory: antiemetic, antispasmodic) did it give?
A: 6.69e-05

Q: For `CC(=O)Nc1ccc(/C=N/NC(N)=S)cc1`, which maximum recommended daily dose (mmol/kg-bw/day) [2] is on record?
A: 0.0106

Q: `C[C@H]1CC2=CC(=O)CC[C@]2(C)[C@H]2CC[C@@]3(C)[C@@H](CC[C@]3(C)O)[C@H]12` was tested. Which maximum recommended daily dose (mmol/kg-bw/day) (TherapeuticCategory: antineoplastic) did it give?
A: 0.0158

Q: How did the maximum recommended daily dose (mmol/kg-bw/day) (TherapeuticCategory: platelet aggregation inhibitor) turn out when `Clc1ccccc1CN1CCc2sccc2C1` was run?
A: 0.0158

Q: How did the maximum recommended daily dose (mmol/kg-bw/day) [2] turn out when `O=C(O)[C@H]1/C(=C/CO)O[C@@H]2CC(=O)N21` was run?
A: 0.0314

Q: For `CC(C)=CCN1CC[C@@]2(C)c3cc(O)ccc3C[C@@H]1[C@@H]2C`, which maximum recommended daily dose (mmol/kg-bw/day) [1] is on record?
A: 0.00876

Q: Which maximum recommended daily dose (mmol/kg-bw/day) (TherapeuticCategory: enzyme cofactor vitamin) does the source give for `Cc1cc2nc3c(=O)[nH]c(=O)nc-3n(C[C@H](O)[C@H](O)[C@H](O)CO)c2cc1C` here?
A: 0.00133

Q: Which maximum recommended daily dose (mmol/kg-bw/day) (TherapeuticCategory: anxiolytic, antihistaminic) does the source give for `OCCOCCN1CCN(C(c2ccccc2)c2ccc(Cl)cc2)CC1` (configuration not stated) here?
A: 0.0178

Q: For `NCCCC(O)(P(=O)(O)O)P(=O)(O)O`, which maximum recommended daily dose (mmol/kg-bw/day) (TherapeuticCategory: antiosteoporotic) is on record?
A: 0.00268

Q: With `NNC(=O)c1ccncc1` as the compound, how does the maximum recommended daily dose (mmol/kg-bw/day) [2] read?
A: 0.0729

Q: `CC[C@H]1OC(=O)[C@H](C)[C@@H](O[C@H]2C[C@@](C)(OC)[C@@H](O)[C@H](C)O2)[C@H](C)[C@@H](O[C@@H]2O[C@H](C)C[C@H](N(C)C)[C@H]2OC(C)=O)[C@](C)(O)C[C@@H](C)C(=O)[C@H](C)[C@@H](O)[C@]1(C)O` was tested. Which maximum recommended daily dose (mmol/kg-bw/day) [2] did it give?
A: 0.0629

Q: How did the maximum recommended daily dose (mmol/kg-bw/day) [2] turn out when `COc1cc(NS(=O)(=O)c2ccc(N)cc2)nc(C)n1` was run?
A: 0.113
